Consider 20 molecules from publication PMC4624220 (Journal of medicinal chemistry, 2015).

Where “and” joins values, the source holds several entries; their conditions need not be identical. Identical values can stand only once. Entries after “also recorded” stand apart in the source; their conditions may differ. Like-named read-outs stand apart in the source and are kept apart here.

In data set [1] the target is T1, Aβ1-42 fibrils (Homo sapiens, UniProt P05067).
For data set [2], the target named is T2, α-syn fibrils (Homo sapiens, UniProt P37840).
In data set [3] the target is T3, tau fibrils (Homo sapiens, UniProt P10636).
For data set [4], the target named is T2, α-syn fibrils. Kind of data set: biochemical.
Data set [5] deals with T1, Aβ1-42 fibrils. In words: biochemical.
In data set [6] the target is T3, tau fibrils. Kind of data set: biochemical.
A short description of data set [7]: Stability of isomers in solution measured by HPLC. The class given is physicochemical. The settings on record: for time for isolated pure Z,E and E,E isomers to isomerize to a mixture: after HPLC separation of the isomers.
Another data set addresses Aβ plaques (Homo sapiens, UniProt P05067). In words: Fluorescent staining of postmortem AD temporal lobe tissue. The settings on record: 5 μM compound, AD temporal lobe sections, fluorescence microscopy.
For another data set, the target named is Lewy bodies (Homo sapiens, UniProt P37840). In words: Fluorescent staining of postmortem PD/DLB midbrain tissue. Particulars: 5 μM compound, PD/DLB midbrain sections, fluorescence microscopy.

T1 sequence (P05067 672-713 limits assumed): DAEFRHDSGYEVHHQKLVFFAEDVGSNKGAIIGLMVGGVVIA
T3 sequence (P10636 560-692): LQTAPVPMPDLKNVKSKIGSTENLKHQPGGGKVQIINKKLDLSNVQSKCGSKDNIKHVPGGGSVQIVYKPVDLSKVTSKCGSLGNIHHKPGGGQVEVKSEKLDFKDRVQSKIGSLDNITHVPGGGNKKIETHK
Sequence of Aβ plaques (P05067 672-711 limits assumed): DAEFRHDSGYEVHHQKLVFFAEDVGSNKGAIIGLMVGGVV

For orientation: Ki means the dissociation constant of the complex between target and ligand, obtained from inhibition or displacement. The low end stands for higher affinity, the high end for lower affinity. As for “3-(3-(4-(Dimethylamino)phenyl)allylidene)-1-(pyridin-4-ylmethyl)indolin-2-one [Compound 29]”, the inhibition constant Ki turned out to be 45.9 ± 19.4 nM on Aβ1-42 fibrils [1], 92 ± 11.2 nM at α-syn fibrils [2] and 188 ± 68 nM at tau fibrils [3].

For the molecule “3-(4-(Dimethylamino)benzylidene)-1-(pyridin-4-ylmethyl)indolin-2-one [Compound 11]”, the inhibition constant (Ki) at Aβ1-42 fibrils [1] was found to be 87.1 ± 34.1 nM; at α-syn fibrils [2], 150 ± 45.7 nM; at tau fibrils [3], 364 ± 121 nM.

Regarding `O=C1Nc2ccccc2C1=C/C=C/c1ccccc1` [Compound 18, 3-(3-Phenylallylidene)indolin-2-one], the inhibitory constant (Ki) at α-syn fibrils [4] is 206 nM and 207 nM; at Aβ1-42 fibrils [5], 267 nM; on tau fibrils [6], 522 nM.

With `COc1ccc(/C=C/C=C2C(=O)Nc3ccccc32)cc1` [Compound 19, 3-(3-(4-Methoxyphenyl)allylidene)indolin-2-one], the Ki at α-syn fibrils [4] was 62 nM and 61.1 nM; on Aβ1-42 fibrils [5], 125 nM and 126 nM; on tau fibrils [6], 169 ± 22.3 nM.

Take `CN(C)c1ccc(/C=C/C=C2C(=O)Nc3ccccc32)cc1` [Compound 20, 3-(3-(4-(Dimethylamino)phenyl)allylidene)indolin-2-one]: in [7], the “time for isolated pure Z,E and E,E isomers to isomerize to a mixture” value is given as at most 20 min. Moreover, the Ki on α-syn fibrils [4] was 41 nM and 40.7 nM; at Aβ1-42 fibrils [5], 27 nM and 27.6 nM; at tau fibrils [6], 54 nM and 53.7 nM. In addition, the “labeling of Aβ plaques” value on Aβ plaques is “label both Lewy bodies and Aβ plaques; also recorded: high labeling of both Lewy Bodies and Aβ plaques”. For the same molecule, at Lewy bodies, the “labeling of Lewy bodies” value is “label both Lewy bodies and Aβ plaques; also recorded: high labeling of both Lewy Bodies and Aβ plaques”.

With `CN(C)c1ccc(/C=C/C=C2C(=O)Nc3ncccc32)cc1` [Compound 21, 3-(3-(4-(Dimethylamino)phenyl)allylidene)-1H-pyrrolo[2,3-b]pyridin-2(3H)-one], the inhibition constant Ki on α-syn fibrils [4] turned out to be 11.5 ± 2 nM; on Aβ1-42 fibrils [5], 15.3 ± 5.5 nM; on tau fibrils [6], 35.1 ± 12.3 nM.

As to `CN(C)c1ccc(/C=C/C=C2C(=O)Nc3ccc(O)cc32)cc1` [Compound 22, 3-(3-(4-(Dimethylamino)phenyl)allylidene)-5-hydroxyindolin-2-one], the Ki came to 54 ± 17.9 nM on α-syn fibrils [4], 37.1 ± 13.6 nM at Aβ1-42 fibrils [5] and 48 ± 17 nM at tau fibrils [6].

For `COc1ccc(/C=C/C=C2C(=O)N(Cc3ccccc3)c3ccccc32)cc1` [Compound 24, 1-Benzyl-3-(3-(4-methoxyphenyl)allylidene)indolin-2-one], the results for the Ki on α-syn fibrils [4], on Aβ1-42 fibrils [5] and on tau fibrils [6] were 72.5 ± 22.6 nM, 741 ± 255 nM and 718 ± 295 nM, respectively.

`CN(C)c1ccc(/C=C/C=C2C(=O)N(C)c3ccccc32)cc1` [Compound 25, 3-(3-(4-(Dimethylamino)phenyl)allylidene)-1-methylindolin-2-one]: the values for the Ki on α-syn fibrils [4], at Aβ1-42 fibrils [5] and at tau fibrils [6] were 63.7 ± 29.6 nM, 56 ± 14.8 nM and 229 ± 121 nM, respectively.

`CN(C)c1ccc(/C=C/C=C2C(=O)N(Cc3ccccc3)c3ccccc32)cc1` [Compound 26, 1-Benzyl-3-(3-(4-(dimethylamino)phenyl)allylidene)indolin-2-one]: the inhibitory constant (Ki) on α-syn fibrils [4] came out at 40.9 ± 25.2 nM; at Aβ1-42 fibrils [5], 358 ± 162 nM; on tau fibrils [6], 374 ± 209 nM.

As for `COc1ccc(CN2C(=O)C(=C/C=C/c3ccc(N(C)C)cc3)c3ccccc32)cc1` [Compound 27, 3-(3-(4-(Dimethylamino)phenyl)allylidene)-1-(4-methoxybenzyl)indolin-2-one], the “time for isolated pure Z,E and E,E isomers to isomerize to a mixture” value in data set [7] was at most 20 min. Moreover, the Ki on α-syn fibrils [4] is 54.6 ± 11.4 nM; at Aβ1-42 fibrils [5] it was 130 ± 41.4 nM; at tau fibrils [6], 240 ± 158 nM.

In the case of `CN(C)c1ccc(/C=C/C=C2C(=O)N(Cc3ccc([N+](=O)[O-])cc3)c3ccccc32)cc1` [Compound 28, 3-(3-(4-(Dimethylamino)phenyl)allylidene)-1-(4-nitrobenzyl)indolin-2-one], the inhibitory constant (Ki) on α-syn fibrils [4] was 4 nM and 4.2 nM; on Aβ1-42 fibrils [5], 92.4 ± 21.9 nM; at tau fibrils [6], 90 ± 48.8 nM.

For `CCOC(=O)N1C(=O)C(=C/C=C/c2ccc(N(C)C)cc2)c2ccccc21` [Compound 30, Ethyl 3-(3-(4-(dimethylamino)phenyl)allylidene)-2-oxoindoline-1-carboxylate], the Ki at α-syn fibrils [4] was found to be 45.3 ± 9 nM; on Aβ1-42 fibrils [5], 84 ± 35 nM; at tau fibrils [6], 263 ± 110 nM.

For the molecule `CN(C)c1ccc(/C=C/C=C2C(=O)N(Cc3ccccc3)c3ncccc32)cc1` [Compound 31, 1-Benzyl-3-(3-(4-(dimethylamino)phenyl)allylidene)-1H-pyrrolo[2,3-b]pyridin-2(3H)-one], the inhibition constant Ki on α-syn fibrils [4] was found to be 68.3 ± 31.2 nM; at Aβ1-42 fibrils [5], 85.1 ± 23 nM; on tau fibrils [6], 257 ± 117 nM.

Consider `COc1ccc(CN2C(=O)C(=C/C=C/c3ccc(N(C)C)cc3)c3cccnc32)cc1` [Compound 32, 3-(3-(4-(Dimethylamino)phenyl)allylidene)-1-(4-methoxybenzyl)-1H-pyrrolo[2,3-b]pyridin-2(3H)-one], for which the inhibition constant (Ki) on α-syn fibrils [4] worked out at 29.8 ± 6.6 nM; on Aβ1-42 fibrils [5], 107 ± 18.9 nM; on tau fibrils [6], 204 ± 26.7 nM.

Consider `CN(C)c1ccc(/C=C/C=C2C(=O)N(Cc3ccc(N)cc3)c3ccccc32)cc1` [Compound 33, 1-(4-Aminobenzyl)-3-(3-(4-(dimethylamino)phenyl)allylidene)indolin-2-one], for which the Ki was 43.6 ± 20 nM on α-syn fibrils [4], 98.9 ± 12.1 nM at Aβ1-42 fibrils [5] and 131 ± 51.5 nM on tau fibrils [6].

For the molecule `CN(C)c1ccc(/C=C/C=C2C(=O)N(c3ccccc3)c3ccccc32)cc1` [Compound 36, 3-(3-(4-(Dimethylamino)phenyl)allylidene)-1-phenylindolin-2-one], the inhibition constant Ki worked out at 68.1 ± 33 nM at α-syn fibrils [4], 287 ± 142 nM on Aβ1-42 fibrils [5] and 465 ± 94.6 nM at tau fibrils [6].

As to `O=C1Nc2ccccc2/C1=C/C=C/c1ccc([N+](=O)[O-])cc1` [Compound 41a, (Z)-3-((E)-3-(4-Nitrophenyl)allylidene)indolin-2-one], the “time stable in solution” value in data set [7] (CH2Cl2-MeOH (1:1), HPLC peak and retention time) is given as at least 20 h.

As to `O=C1Nc2ccccc2/C1=C\C=C\c1ccc([N+](=O)[O-])cc1` [Compound 41b, (E)-3-((E)-3-(4-Nitrophenyl)allylidene)indolin-2-one], the “isomerization to an un-identified isomer” value in [7] (CH2Cl2-MeOH (1:1), 20 h, HPLC) was 33%.

On to `Nc1ccc(/C=C/C=C2C(=O)Nc3ccccc32)cc1` [Compound 47, 3-(3-(4-Aminophenyl)allylidene)indolin-2-one], for which the inhibition constant Ki at α-syn fibrils [4] worked out at 44.8 ± 15.6 nM; at Aβ1-42 fibrils [5] it was 50.8 ± 18.5 nM; at tau fibrils [6] it was 38.3 ± 28.7 nM.
